Assay results published in patent publication US20150018301A1, “LRRK-2-Mediated Neuronal Toxicity” (THE JOHNS HOPKINS UNIVERSITY, priority 2009, published 2015).

Columns and labels:
[1] = system: rat primary cortical neuronal cultures transfected with G2019S LRRK2; assay: LRRK2-induced neuronal toxicity in primary cortical neuronal cultures (neurite shortening, TUNEL); assay type: cell-based; conditions: 0.5 μM
Description: Representative photomicrographs of each experimental group. LRRK2 and eGFP constructs were combined in a molar ratio of 10:1, respectively, and transfected by using of Lipofectamine 2000 (Invitrogen) at DIV (day in vitro) 14 into rat primary cortical neuronal cultures. Compounds (0.5 μM) were administrated at the time of transfection and continued until toxicity assessments. On DIV 16, images were collected on a Zeiss Automatic stage with Axiovision 6.0. (a) Low magnified photomicrographs; (b and c) High magnified photomicrographs. Scale bar=50 μm (a) and 10 μm (b and c);
Primary cortical neuronal cultures were prepared from gestational day 15 fetal rats as previously described. Gonzalez-Zulueta, M., et al. Manganese superoxide dismutase protects nNOS neurons from NMDA and nitric oxide-mediated neurotoxicity. J Neurosci 18, 2040-2055 (1998). All procedures used in this study were approved by the Johns Hopkins Medical Institute Animal Care Committee. Cell viability assays and DNA fragmentation (TUNEL assay) were performed as previously described. Smith, W. W., et al. Kinase activity of mutant LRRK2 mediates neuronal toxicity. Nat Neurosci 9, 1231-1233 (2006); West, A. B., et al. Parkinson's disease-associated mutations in LRRK2 link enhanced GTP-binding and kinase activities to neuronal toxicity. Hum Mol Genet 16, 223-232 (2007). The cortex was dissected, incubated for 15 min in 0.027% trypsin, and then transferred to modified Eagle's medium (MEM)/10% horse serum/10% fetal bovine serum/2 mM glutamine followed by trituration. Dissociated cells were plated at a density of 3-4×10^5 cells per well in polyornithine-coated plates. After 4 days the cells were treated with 10 μg of 5-fluoro-2′-deoxyuridine to prevent proliferation of nonneuronal cells. Cells were maintained in MEM/5% horse serum/2 mM glutamine in 8% CO2 incubator. The medium was changed twice weekly. For assessment of LRRK2-mediated neuronal injury, LRRK2 and eGFP constructs were combined in a molar ratio of 10:1, respectively, and transfected into neurons with Lipofectamine 2000 (Invitrogen) at DIV (day in vitro) 14. On DIV 16, images were collected on a Zeiss Automatic stage with Axiovision 6.0. Viable neurons were defined as having at least one smooth extension (neurite) with twice the length of the cell body. The percentage of eGFP-positive injured neurons in each experimental group relative to those neurons transfected with eGFP was calculated.

LRRK1 WT [2] = biological target: T1, LRRK1 WT (Homo sapiens, UniProt Q38SD2); assay: In vitro kinase assay: LRRK1 autophosphorylation; assay type: biochemical; conditions: for IC50: Table 3, mean of three experiments
LRRK2 WT [3] = biological target: T2, LRRK2 WT (Homo sapiens, UniProt Q5S007); assay: In vitro kinase assay: LRRK2-mediated MBP phosphorylation; assay type: biochemical; conditions: for effect on WT LRRK2 MBP phosphorylation: dose-response; for IC50: mean of three experiments; for MBP phosphorylation Average ± SEM: compound 16 μM, 30° C., 15 min, normalized to absence of compound, mean ± S.E.M. of three experiments; for effect on LRRK2-mediated phosphorylation of MBP: screen at 16 μM
LRRK1 WT [4] = biological target: T1, LRRK1 WT; assay: In vitro kinase assay: LRRK1-mediated MBP phosphorylation; assay type: biochemical; conditions: for IC50: Table 3, mean of three experiments
LRRK2 WT [5] = biological target: T2, LRRK2 WT; assay: In vitro kinase assay: LRRK2 autophosphorylation; assay type: biochemical; conditions: for effect on WT LRRK2 autophosphorylation: dose-response; for IC50: Table 2, mean of three experiments; for LRRK2 autophosphorylation Average ± SEM: compound 16 μM, phosphorylation normalized to absence of compound, mean ± S.E.M. of three experiments; for effect on LRRK2 autophosphorylation: screen at 16 μM
LRRK2 G2019S [6] = biological target: T3, LRRK2 G2019S (Homo sapiens, UniProt Q5S007, G2019S); assay: In vitro kinase assay: G2019S LRRK2 autophosphorylation; assay type: biochemical; conditions: for effect on G2019S LRRK2 autophosphorylation: dose-response; for IC50: Table 2, mean of three experiments
Description: (§1) Transfection was performed by using Fugene HD reagent (Roche Applied Science) according to the manufacturer's instruction. For purification of recombinant LRRK1 and LRRK2 proteins, ACTA Purifier (GE Healthcare) FPLC system was used.
(§2) Resulting lysates were rotated at 4° C. for 30 min followed by centrifugation at 20,000×g for 15 min. The supernatants were injected into a GSTrap FF column pre-equilibrated with PBS at 0.5. mL/min flow after filtration using a 0.2 μm syringe filter (Corning). The bound proteins were eluted with buffer containing 10 mM GSH (Sigma), 150 mM NaCl, and 50 mM Tris-HCl (pH 8.0).
(§3) The in vitro kinase assay was performed as previously described. […] Recombinant LRRK2 and MBP or CST-4E-BP1 were combined before the kinase reaction. LRRK2 autophosphorylation is LRRK2 itself phosphorylation and MBP or GST-4E-BP1 phosphorylation is induced by LRRK2. After the kinase reaction, combined LRRK2 and MBP or GST-4E-BP1 were loaded on SDSPAGE and phosphorylated LRRK2 and MBP or GST-4E-BP1 could be detected separately an a single gel. Recombinant proteins and inhibitors were incubated at 30° C. in kinase assay buffer containing 20 mM Hepes (pH 7.4), 5 mM EGTA, and 20 mM β-glycerol phosphate. 0.5 μg MBP (Upstate) or 0.5 μg GST-4B-BP1, 50 μM ATP (Sigma), 20 mM MgCl2, and 1 μCi [γ-32P] ATP (PerkinElmer) was added after 5 min. The reaction was performed at 30° C. to reduce non-specific 32P incorporation for 15 min and terminated by the addition of 5×Laemmili sample buffer. […] Gels were stained by coomassie brilliant blue after fixation with 10% acetic acid and 40% methanol and then exposed to a Phosphoimager. Data were analyzed by ImageQuant 6.0 software.
(§4) To calculate the IC50 value, a dose-response curve was constructed and non-linear regression analysis using the equation for a sigmoid plot.

LRRK2 G2019S [7] = biological target: T3, LRRK2 G2019S; assay: In vitro kinase assay: G2019S LRRK2-mediated MBP phosphorylation; assay type: biochemical; conditions: for effect on G2019S LRRK2 MBP phosphorylation: dose-response; for IC50: Table 2, mean of three experiments
Description: as §1, §2, §3, §4

T2 sequence (Q5S007 whole entry): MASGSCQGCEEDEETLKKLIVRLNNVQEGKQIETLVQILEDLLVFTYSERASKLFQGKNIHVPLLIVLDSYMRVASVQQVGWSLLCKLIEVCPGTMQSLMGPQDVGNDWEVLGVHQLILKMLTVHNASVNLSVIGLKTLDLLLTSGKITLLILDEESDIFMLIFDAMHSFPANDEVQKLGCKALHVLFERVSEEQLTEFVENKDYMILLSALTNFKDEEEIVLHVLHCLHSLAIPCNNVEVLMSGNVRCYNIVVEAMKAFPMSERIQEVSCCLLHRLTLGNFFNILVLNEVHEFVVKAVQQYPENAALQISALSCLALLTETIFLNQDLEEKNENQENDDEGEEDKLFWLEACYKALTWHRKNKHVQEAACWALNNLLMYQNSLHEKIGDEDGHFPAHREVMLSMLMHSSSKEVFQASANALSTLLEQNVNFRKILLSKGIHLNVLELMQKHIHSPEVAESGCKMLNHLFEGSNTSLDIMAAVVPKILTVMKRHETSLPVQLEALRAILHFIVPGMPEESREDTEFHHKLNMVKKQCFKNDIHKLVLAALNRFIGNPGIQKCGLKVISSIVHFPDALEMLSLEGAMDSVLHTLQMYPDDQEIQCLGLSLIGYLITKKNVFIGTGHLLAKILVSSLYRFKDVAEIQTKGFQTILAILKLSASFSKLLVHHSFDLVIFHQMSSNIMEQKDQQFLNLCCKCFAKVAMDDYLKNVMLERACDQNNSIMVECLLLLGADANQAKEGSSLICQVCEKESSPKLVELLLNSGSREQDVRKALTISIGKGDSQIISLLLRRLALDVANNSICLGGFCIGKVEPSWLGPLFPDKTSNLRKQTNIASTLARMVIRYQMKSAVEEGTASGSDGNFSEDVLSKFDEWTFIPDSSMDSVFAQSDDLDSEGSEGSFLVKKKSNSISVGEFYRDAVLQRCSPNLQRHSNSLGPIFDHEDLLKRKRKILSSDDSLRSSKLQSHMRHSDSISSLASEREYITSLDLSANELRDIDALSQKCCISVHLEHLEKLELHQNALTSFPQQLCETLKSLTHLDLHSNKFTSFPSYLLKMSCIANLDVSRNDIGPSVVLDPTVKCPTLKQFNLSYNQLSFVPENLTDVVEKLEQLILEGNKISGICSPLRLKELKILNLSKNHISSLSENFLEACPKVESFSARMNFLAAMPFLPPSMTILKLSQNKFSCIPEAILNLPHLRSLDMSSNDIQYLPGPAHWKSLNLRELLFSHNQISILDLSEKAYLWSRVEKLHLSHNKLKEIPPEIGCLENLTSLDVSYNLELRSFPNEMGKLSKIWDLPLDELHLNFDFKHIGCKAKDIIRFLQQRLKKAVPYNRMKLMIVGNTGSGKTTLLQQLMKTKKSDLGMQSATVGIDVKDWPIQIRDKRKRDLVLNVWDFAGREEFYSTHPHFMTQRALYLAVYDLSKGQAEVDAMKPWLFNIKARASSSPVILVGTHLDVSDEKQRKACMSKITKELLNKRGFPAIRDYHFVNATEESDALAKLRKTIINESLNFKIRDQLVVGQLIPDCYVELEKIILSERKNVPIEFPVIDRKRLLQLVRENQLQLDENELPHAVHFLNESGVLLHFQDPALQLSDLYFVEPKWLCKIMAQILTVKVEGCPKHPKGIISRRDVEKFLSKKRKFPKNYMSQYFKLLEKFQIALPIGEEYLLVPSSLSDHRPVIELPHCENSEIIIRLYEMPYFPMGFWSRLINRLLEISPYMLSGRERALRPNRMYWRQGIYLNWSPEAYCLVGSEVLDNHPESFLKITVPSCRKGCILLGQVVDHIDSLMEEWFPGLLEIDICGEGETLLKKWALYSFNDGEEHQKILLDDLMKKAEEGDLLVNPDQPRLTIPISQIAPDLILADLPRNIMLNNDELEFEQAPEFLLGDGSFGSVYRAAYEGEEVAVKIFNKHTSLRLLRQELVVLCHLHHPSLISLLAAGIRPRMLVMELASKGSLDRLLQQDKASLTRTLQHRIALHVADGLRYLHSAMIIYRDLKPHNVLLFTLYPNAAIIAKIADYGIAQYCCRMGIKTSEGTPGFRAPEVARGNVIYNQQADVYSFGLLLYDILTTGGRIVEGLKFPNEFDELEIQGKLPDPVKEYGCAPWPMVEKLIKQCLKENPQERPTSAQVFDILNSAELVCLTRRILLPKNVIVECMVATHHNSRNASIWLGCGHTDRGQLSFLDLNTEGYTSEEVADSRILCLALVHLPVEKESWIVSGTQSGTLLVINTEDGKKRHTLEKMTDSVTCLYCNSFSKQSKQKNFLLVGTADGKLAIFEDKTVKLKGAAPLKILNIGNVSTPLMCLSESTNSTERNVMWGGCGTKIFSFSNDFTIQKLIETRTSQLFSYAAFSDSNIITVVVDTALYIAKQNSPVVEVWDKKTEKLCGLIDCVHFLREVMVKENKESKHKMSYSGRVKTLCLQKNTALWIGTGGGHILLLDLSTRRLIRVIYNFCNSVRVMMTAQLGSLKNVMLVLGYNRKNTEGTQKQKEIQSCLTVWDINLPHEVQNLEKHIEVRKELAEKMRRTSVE
T3 sequence (Q5S007 whole entry G2019S): as the sequence (Q5S007 whole entry) above, with G2019S counted along it
T1 sequence (Q38SD2 whole entry): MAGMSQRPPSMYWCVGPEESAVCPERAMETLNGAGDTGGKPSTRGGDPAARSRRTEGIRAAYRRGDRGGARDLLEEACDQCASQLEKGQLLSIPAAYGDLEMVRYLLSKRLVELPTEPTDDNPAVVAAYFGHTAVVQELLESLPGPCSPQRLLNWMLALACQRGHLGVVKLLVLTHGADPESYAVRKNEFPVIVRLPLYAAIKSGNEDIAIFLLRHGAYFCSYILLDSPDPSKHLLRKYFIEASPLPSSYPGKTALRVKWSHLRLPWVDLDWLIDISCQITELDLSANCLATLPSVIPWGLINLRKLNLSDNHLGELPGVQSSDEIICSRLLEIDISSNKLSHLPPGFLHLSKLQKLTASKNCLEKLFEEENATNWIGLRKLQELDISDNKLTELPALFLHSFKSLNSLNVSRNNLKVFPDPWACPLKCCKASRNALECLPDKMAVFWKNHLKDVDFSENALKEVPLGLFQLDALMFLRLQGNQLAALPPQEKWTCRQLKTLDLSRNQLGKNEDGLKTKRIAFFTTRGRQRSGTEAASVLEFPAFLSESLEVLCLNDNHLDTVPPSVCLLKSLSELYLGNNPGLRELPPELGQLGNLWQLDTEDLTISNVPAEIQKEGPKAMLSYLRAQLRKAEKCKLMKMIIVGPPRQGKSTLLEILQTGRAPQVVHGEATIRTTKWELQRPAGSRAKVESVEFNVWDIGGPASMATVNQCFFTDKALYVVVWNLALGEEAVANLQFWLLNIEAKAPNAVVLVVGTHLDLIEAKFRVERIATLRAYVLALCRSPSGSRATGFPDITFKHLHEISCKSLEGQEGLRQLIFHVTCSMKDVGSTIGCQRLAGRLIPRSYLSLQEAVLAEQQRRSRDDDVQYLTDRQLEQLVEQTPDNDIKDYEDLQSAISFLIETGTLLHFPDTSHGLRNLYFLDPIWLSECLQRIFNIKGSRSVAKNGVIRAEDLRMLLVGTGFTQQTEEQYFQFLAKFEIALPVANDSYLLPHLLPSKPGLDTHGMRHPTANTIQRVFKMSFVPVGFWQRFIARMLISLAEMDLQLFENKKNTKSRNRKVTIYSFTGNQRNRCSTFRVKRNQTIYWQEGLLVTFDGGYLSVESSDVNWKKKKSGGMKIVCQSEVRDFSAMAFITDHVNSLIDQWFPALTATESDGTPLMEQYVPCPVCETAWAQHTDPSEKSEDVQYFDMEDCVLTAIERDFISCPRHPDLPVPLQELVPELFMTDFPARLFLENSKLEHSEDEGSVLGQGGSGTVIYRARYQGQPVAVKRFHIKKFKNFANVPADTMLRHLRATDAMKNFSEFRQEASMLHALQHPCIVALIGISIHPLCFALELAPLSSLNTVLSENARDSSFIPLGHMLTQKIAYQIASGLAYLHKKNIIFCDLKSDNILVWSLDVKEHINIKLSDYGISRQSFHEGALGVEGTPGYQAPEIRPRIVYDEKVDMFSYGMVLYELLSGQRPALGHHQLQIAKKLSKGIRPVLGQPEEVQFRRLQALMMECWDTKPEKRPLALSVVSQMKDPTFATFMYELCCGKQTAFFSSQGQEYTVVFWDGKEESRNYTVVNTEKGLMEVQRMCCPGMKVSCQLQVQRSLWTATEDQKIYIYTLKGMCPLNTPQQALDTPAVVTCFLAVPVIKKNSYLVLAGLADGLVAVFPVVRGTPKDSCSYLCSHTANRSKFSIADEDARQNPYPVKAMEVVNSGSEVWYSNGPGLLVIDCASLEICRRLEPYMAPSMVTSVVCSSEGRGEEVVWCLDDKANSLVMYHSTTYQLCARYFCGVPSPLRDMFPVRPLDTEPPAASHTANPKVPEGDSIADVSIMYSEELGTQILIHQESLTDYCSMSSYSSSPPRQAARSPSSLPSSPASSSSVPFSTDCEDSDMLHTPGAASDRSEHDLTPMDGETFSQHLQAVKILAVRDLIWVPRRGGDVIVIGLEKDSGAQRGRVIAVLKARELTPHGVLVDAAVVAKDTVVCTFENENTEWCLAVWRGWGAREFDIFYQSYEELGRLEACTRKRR

Row | Structure (SMILES) | G2019S LRRK2 toxicity [1] | effect on LRRK1 autophosphorylation (LRRK1 WT [2]) | effect on WT LRRK2 MBP phosphorylation (LRRK2 WT [3]) | effect on LRRK1 MBP phosphorylation (LRRK1 WT [4]) | effect on WT LRRK2 autophosphorylation (LRRK2 WT [5]) | effect on G2019S LRRK2 autophosphorylation (LRRK2 G2019S [6]) | effect on G2019S LRRK2 MBP phosphorylation (LRRK2 G2019S [7]) | G2019S LRRK2 cell death (TUNEL) [1] | G2019S LRRK2 cell injury (neurite shortening) [1] | IC50 (LRRK1 WT [2]) [nM] | IC50 (LRRK2 WT [3]; Table 2) [nM] | IC50 (LRRK2 WT [3]; Table 3) [nM] | MBP phosphorylation Average ± SEM (LRRK2 WT [3]) | effect on LRRK2-mediated phosphorylation of MBP (LRRK2 WT [3]) | IC50 (LRRK1 WT [4]) [nM] | IC50 (LRRK2 WT [5]) [nM] | LRRK2 autophosphorylation Average ± SEM (LRRK2 WT [5]) | effect on LRRK2 autophosphorylation (LRRK2 WT [5]) | IC50 (LRRK2 G2019S [6]) [nM] | IC50 (LRRK2 G2019S [7]) [nM]
1 | Cc1ccc(NC(=O)c2cccc(N(C)C)c2)cc1NC(=O)c1ccc(O)cc1 [Inhibitor 53, ZM336372] | failed to inhibit | minimal to no effect | no effect | minimal to no effect | no effect | no effect | no effect | – | – | – | – | – | – | – | – | – | – | – | – | –
2 | O=C1Nc2ccc(I)cc2/C1=C/c1cc(Br)c(O)c(Br)c1 [Inhibitor 56, GW5074] | – | – | – | – | – | – | – | attenuated | attenuated | 730 | 3150 | 1090 | 4.7 ± 4.1 % of control | substantially inhibited | 3250 | 880 | 4.6 ± 2.9 % of control | substantially inhibited | 220 | 880
3 | O=C1Nc2ccccc2/C1=C1/Nc2ccccc2/C1=N\O [Inhibitor 70, Indirubin-3-monooxine] | – | inhibited | inhibited | inhibited | inhibited | inhibited | inhibited | attenuated | attenuated | 790 | 4830 | 4830 | 33.1 ± 15.7 % of control | substantially inhibited | 3100 | 1750 | 6.0 ± 6.5 % of control | substantially inhibited | 380 | 1310
